From US11679107B2 (Eisai R&D Management Co., Ltd., priority 2018, dated 2023)
Like-named read-outs stand apart in the source and are kept apart here.

Columns and labels:
SF3b complexes = target: T1, SF3b complexes (Homo sapiens, UniProt O75533+Q7RTV0); test: Scintillation proximity assay (SPA) with [3H]-labelled pladienolide probe; type: binding; details: SF3B1 (WT); geometric mean; read-out: SPA-ATS GMean IC50 (nM) SF3B1 (WT)
T1 construct: endogenous in cells; host or cells: Nuclear extracts; A HeLa S3 extract preparation is described for the in vitro splicing assay
Procedure, shortened: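 SF3b complexes captured from nuclear extracts on anti-SF3B1 antibody SPA beads; test compounds pre-incubated 30 min before 2.5 nM [3H]-pladienolide probe added, then 30 min incubation. Bound probe read by scintillation; values from non-linear regression of concentration–response curves.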

[1] = test system: Ad2 variant pre-mRNAs spliced in HeLa S3 nuclear extracts; test: In vitro splicing assay (IVS), RT-qPCR of spliced product; type: biochemical; details: for IC50: geometric mean; for Ratio Ad2.1/2.2: ratio of IVS IC50 Ad2.1 to Ad2.2
Procedure, shortened: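 Ad2 variant pre-mRNA (2 ng) with FTZΔi control RNA in HeLa S3 nuclear extract (8 μg) was pre-incubated with compound or DMSO for 15 min at 30 °C. Splicing ran 90 min at 30 °C after adding 0.5 mM ATP, creatine phosphate and MgCl2. Spliced product was quantified by TaqMan RT-qPCR, normalized to DMSO, and curve-fitted.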

[2] = test system: NCI-H1568 cells (high MCL1); test: Cell proliferation and viability, CellTiter-Glo, 72 hours; type: cell-based; details: for GI50: geometric mean
Procedure, shortened: (§1)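 Cells grown in RPMI-1640 with 10% FBS (Panc line with added insulin and FBS to 15%) were exposed to an 11-point half-log dilution series, typically 10 μM-100 pM, at 0.1% final DMSO. After incubation at 37° C, 5% CO2, ATP content was measured by luminescence and normalized to a time-zero plate and DMSO wells.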

[3] = test system: Panc 05.04 cells (SF3b K700E mutant); test: as above; type: cell-based; details: for GI50: geometric mean
Procedure, shortened: as §1

[4] = Ad2.1 pre-mRNA substrate, read-out: qPCR-IVS-ATS GMean IC50 (nM) Ad2.1
[5] = Ad2.2 pre-mRNA substrate, read-out: qPCR-IVS-ATS GMean IC50 (nM) Ad2.2
[6] = NCI-H1568, 72 h, read-out: CTGlo-ATS GMean GI50 (nM) 72 h NCIH1568.1, NCIH1568.1 cells, 72 h
[7] = NCIH1568.1 cells, 72 h, −100% cidal, 0% static, 100% maximal growth
[8] = PANC0504.1 cells, 72 h, −100% cidal, 0% static, 100% maximal growth
[9] = Panc 05.04, 72 h, read-out: CTGlo-ATS GMean GI50 (nM) 72 h PANC0504.1, PANC0504.1 cells, 72 h
[10] = 72 h, NCIH1568.1, -100% = cidal, 0% = static, 100% = uninhibited growth
[11] = 72 h, PANC0504.1, -100% = cidal, 0% = static, 100% = uninhibited growth
[12] = NCI-H1568, read-out: CTGlo-ATS GMean GI50 (nM) 72 h NCIH1568.1, NCIH1568.1 cells, 72 h
[13] = Panc 05.04, read-out: CTGlo-ATS GMean GI50 (nM) 72 h PANC0504.1, PANC0504.1 cells, 72 h

Structure (SMILES) | IC50 (SF3b complexes) [nM] | IC50 [1, 4] [nM] | IC50 [1, 5] [nM] | GI50 [2, 6] [nM] | CTGlo-ATS Mean MinResponse % 72 h NCIH1568.1 [2, 7] [%] | CTGlo-ATS Mean MinResponse % 72 h PANC0504.1 [3, 8] [%] | GI50 [3, 9] [nM] | Ratio Ad2.1/2.2 [1] | CTGlo-ATS Mean MinResponse % 72 h NCIH1568.1 [2, 10] [%] | GI50 ([2]; NCI-H1568, 72 h, read-out: CTGlo-ATS GMean GI50 (nM) 72 h NCIH1568.1, 72 h, NCIH1568.1) [nM] | CTGlo-ATS Mean MinResponse % 72 h PANC0504.1 [3, 11] [%] | GI50 ([3]; Panc 05.04, 72 h, read-out: CTGlo-ATS GMean GI50 (nM) 72 h PANC0504.1, 72 h, PANC0504.1) [nM] | GI50 [2, 12] [nM] | GI50 [3, 13] [nM] | GI50 ([2]; NCI-H1568, read-out: CTGlo-ATS GMean GI50 (nM) 72 h NCIH1568.1, 72 h, NCIH1568.1) [nM] | GI50 ([3]; Panc 05.04, read-out: CTGlo-ATS GMean GI50 (nM) 72 h PANC0504.1, 72 h, PANC0504.1) [nM]
C/C(=C\c1cc(F)cc(N2CCC[C@H]2C)c1)[C@H]1OC(=O)C[C@H](O)CC[C@H](C)[C@@H](OC(=O)N2CCN(C)CC2)/C=C/[C@@H]1C [Compound 41] | 8.26 | 221 | 39.2 | 21.4 | −77.375 | −82.009 | 15.8 | – | – | – | – | – | – | – | – | –
C/C(=C\c1cc(F)cc(N2CCN(C(=O)Cn3cccn3)CC2)c1)[C@H]1OC(=O)C[C@H](O)CC[C@H](C)[C@@H](OC(=O)N2CCNCC2)/C=C/[C@@H]1C [Compound 235, [(2S,3S,4E,6R,7S,10R)-2-[(E)-1-[3-fluoro-5-[4-(2-pyrazol-1-ylacetyl)piperazin-1-yl]phenyl]prop-1-en-2-yl]-10-hydroxy-3,7-dimethyl-12-oxo-1-oxacyclododec-4-en-6-yl] piperazine-1-carboxylate] | 5.56 | 16 | 15.1 | – | – | – | – | 1.057 | −84.925 | 2.35 | −84.459 | 1.94 | – | – | – | –
C/C(=C\c1cc(F)cc(N2CC(F)C2)c1)[C@H]1OC(=O)C[C@H](O)CC[C@H](C)[C@@H](OC(=O)N2CCN(C)CC2)/C=C/[C@@H]1C [Compound 38] | 3.1 | 1020 | 25.2 | – | −54.093 | −88.672 | – | – | – | – | – | – | 19.6 | 14.4 | – | –
C/C(=C\c1ccc2nccn2c1)[C@H]1OC(=O)C[C@H](O)CC[C@H](C)[C@@H](OC(=O)N2CCN(C)CC2)/C=C/[C@@H]1C [Compound 88, [(2S,3S,4E,6R,7S,10R)-10-hydroxy-2-[(E)-1-imidazo[1,2-a]pyridin-6-ylprop-1-en-2-yl]-3,7-dimethyl-12-oxo-l-oxacyclododec-4-en-6-yl] 4-methylpiperazine-1-carboxylate] | 1.02 | > 25000 | 154 | 157 | −20.194 | −5.029 | 86.3 | – | – | – | – | – | – | – | – | –
C/C(=C\c1cccc(S(=O)(=O)N2CCC(F)(F)CC2)c1)[C@H]1OC(=O)C[C@H](O)CC[C@H](C)[C@@H](OC(=O)N2CCN(C)CC2)/C=C/[C@@H]1C [Compound 202, [(2S,3S,4E,6R,7S,10R)-2-[(E)-1-[3-(4,4-difluoropiperidin-1-yl)sulfonylphenyl]prop-1-en-2-yl]-10-hydroxy-3,7-dimethyl-12-oxo-1-oxacyclododec-4-en-6-yl] 4-methylpiperazine-1-carboxylate] | 14.1 | 4470 | 25.2 | – | – | – | – | 177.387 | −59.083 | – | −93.824 | – | – | – | 29.4 | 24.7
C/C(=C\c1cccc(S(=O)(=O)N2CCNCC2)c1)[C@H]1OC(=O)C[C@H](O)CC[C@H](C)[C@@H](OC(=O)N2CCN(C)CC2)/C=C/[C@@H]1C [Compound 93] | 24.7 | 219 | 41.6 | – | −57.108 | −97.726 | – | – | – | – | – | – | 73.8 | 109 | – | –
C/C(=C\c1cc(F)cc(N2CCN(C(=O)C3CCOC3)CC2)c1)[C@H]1OC(=O)C[C@H](O)CC[C@H](C)[C@@H](OC(=O)N2CCN(C)CC2)/C=C/[C@@H]1C (some centres unmarked) [Compound 143] | 3.2 | 19.2 | 17.2 | 1.75 | −84.803 | −87.719 | 3.67 | – | – | – | – | – | – | – | – | –
C/C(=C\c1cnn(C)c1)[C@H]1OC(=O)C[C@H](O)CC[C@H](C)[C@@H](OC(=O)N2CCN(C)CC2)/C=C/[C@@H]1C [Compound 103] | 258 | > 25000 | 4260 | > 10000 | 78.168 | 80.958 | > 10000 | – | – | – | – | – | – | – | – | –
C/C(=C\c1cc(F)c2cnn(CC(=O)N3CCCC3)c2c1)[C@H]1OC(=O)C[C@H](O)CC[C@H](C)[C@@H](OC(=O)N2CCN(C)CC2)/C=C/[C@@H]1C [Compound 129] | 4.38 | 32 | 15.6 | – | −70.909 | −94.183 | – | – | – | – | – | – | 4.73 | 11.3 | – | –
C/C(=C\c1cc(F)cc(N2CCOCC2)c1)[C@H]1OC(=O)C[C@H](O)CC[C@H](C)[C@@H](OC(=O)N2CCN(C3CCC3)CC2)/C=C/[C@@H]1C [Compound 26] | 11.4 | 107 | 43.5 | 26.5 | −68.566 | −88.278 | 19 | – | – | – | – | – | – | – | – | –
C/C(=C\c1ccc2cn[nH]c2c1)[C@H]1OC(=O)C[C@H](O)CC[C@H](C)[C@@H](OC(=O)N2CCN(C)CC2)/C=C/[C@@H]1C [Compound 4] | 3.8 | > 25000 | 58.7 | – | −46.416 | −27.423 | – | – | – | – | – | – | 15.5 | 26.9 | – | –
C/C(=C\c1cc(F)cc(N2CCN(C(=O)CN3CCOCC3)CC2)c1)[C@H]1OC(=O)C[C@H](O)CC[C@H](C)[C@@H](OC(=O)N2CCN(C)CC2)/C=C/[C@@H]1C [Compound 119] | 11.7 | 31 | 21.7 | – | −81.451 | −75.344 | – | – | – | – | – | – | 8.84 | 8.43 | – | –
C/C(=C\c1cc(S(=O)(=O)N2CCC(O)CC2)ccc1F)[C@H]1OC(=O)C[C@H](O)CC[C@H](C)[C@@H](OC(=O)N2CCN(C)CC2)/C=C/[C@@H]1C [Compound 91, [(2S,3S,4E,6R,7S,10R)-2-[(E)-1-[2-fluoro-5-(4-hydroxypiperidin-l-yl)sulfonylphenyl]prop-1-en-2-yl]-10-hydroxy-3,7-dimethyl-12-oxo-1-oxacyclododec-4-en-6-yl] 4-methylpiperazine-1-carboxylate] | 6.04 | 14.7 | 18.9 | – | −64.491 | −90.776 | – | – | – | – | – | – | 6.86 | 4.64 | – | –
C/C(=C\c1cc(F)c2cn[nH]c2c1)[C@H]1OC(=O)C[C@H](O)CC[C@H](C)[C@@H](OC(=O)N2CCN(C)CC2)/C=C/[C@@H]1C [Compound 59] | 2.75 | 13600 | 46.1 | – | −44.526 | −95.512 | – | – | – | – | – | – | 14.5 | 17.5 | – | –
C/C(=C\c1cc(F)c2nn(CC3CC3)nc2c1)[C@H]1OC(=O)C[C@H](O)CC[C@H](C)[C@@H](OC(=O)N2CCN(C)CC2)/C=C/[C@@H]1C [Compound 138] | 8.7 | > 25000 | 57.5 | – | −80.330 | −85.916 | – | – | – | – | – | – | 70.3 | 120 | – | –
